Measured values reported in PMC7239840, “A traffic light enzyme: acetate binding reversibly switches chlorite dismutase from a red- to a green-colored heme protein” (Journal of Biological Inorganic Chemistry, 2020).

Experiments:
[1] = biological target: T1, chlorite dismutase (AoCld) R183A (Azospira oryzae, UniProt E2DI02, R217A); test: ligand binding to the R183A mutant (Fig. S7)
T1 construct: recombinant, N-terminal His6 tag

[2] = biological target: T2, chlorite dismutase (AoCld) (Azospira oryzae, UniProt E2DI02); test: UV-visible equilibrium binding titration (Soret band), pH […]; EPR low-spin adduct; set-up: recombinant, N-terminal His6 tag
T2 sequence (E2DI02 35-282): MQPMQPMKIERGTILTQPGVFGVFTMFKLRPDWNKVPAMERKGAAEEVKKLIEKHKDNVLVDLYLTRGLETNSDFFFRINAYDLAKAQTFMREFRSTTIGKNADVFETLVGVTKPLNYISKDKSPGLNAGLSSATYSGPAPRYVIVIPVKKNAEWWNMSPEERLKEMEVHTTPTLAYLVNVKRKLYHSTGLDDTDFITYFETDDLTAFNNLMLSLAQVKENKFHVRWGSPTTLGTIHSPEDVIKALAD

[3] = biological target: T2, chlorite dismutase (AoCld); test: biochemical
[4] = biological target: T2, chlorite dismutase (AoCld); test: UV-visible equilibrium binding titration (Soret band), pH […]; EPR with […] hyperfine splitting; set-up: recombinant, N-terminal His6 tag

T1 sequence (E2DI02 35-282, stated change not applied): as the sequence (E2DI02 35-282) above

With `c1c[nH]cn1` [Im, imidazole] the “ligand binding to the R183A mutant (Fig. S7)” value [1] was “Mutagenesis of Arg183 to Ala results in the complete loss of affinity for fluoride and acetate, but not for imidazole” and the Kd [2] was 0.0105 ± 0.0024 mM.
`CC(=O)O` [Ac, acetate] was tested, and the Kd [3] was 17.5 ± 0.5 mM.
`F` [F^−, fluoride] was tested, and the Kd [4] was 15.6 ± 1.9 mM.
